Results on five molecules are retold here after ChEMBL document CHEMBL5036303, “Cyclic Analogues of the Chemerin C-Terminus Mimic a Loop Conformation Essential for Activating the Chemokine-like Receptor 1” (J Med Chem, 2021).

Where a SMILES comes first, the peptide text is derived from it.

Assay [1] has as its target T1, Chemerin-like receptor 1 (Homo sapiens, UniProt Q99788).
T1 sequence (Q99788 whole entry): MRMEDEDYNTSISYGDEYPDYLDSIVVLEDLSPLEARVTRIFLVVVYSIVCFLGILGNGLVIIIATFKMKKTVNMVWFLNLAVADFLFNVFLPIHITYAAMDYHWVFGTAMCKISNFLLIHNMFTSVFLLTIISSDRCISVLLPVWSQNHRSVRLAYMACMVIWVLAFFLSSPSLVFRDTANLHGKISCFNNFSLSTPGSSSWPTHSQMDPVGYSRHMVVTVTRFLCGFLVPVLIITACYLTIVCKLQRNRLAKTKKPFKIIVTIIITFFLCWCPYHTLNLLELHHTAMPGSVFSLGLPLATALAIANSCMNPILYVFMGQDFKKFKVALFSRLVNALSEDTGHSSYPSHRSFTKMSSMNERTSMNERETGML
The assay can be described thus: Agonist activity at wild type CMKL1 (unknown origin) expressed in COS-7 cells assessed as increase in calcium flux measured for 40 sec by Fluo-2 AM dye based assay. Type of assay: functional, cell-based. For orientation: Calcium assays in cells follow changes in intracellular calcium, usually with a dye or a luminescent sensor.

Assay [2] is described as follows: Agonist activity at CMKL1 Y268L mutant (unknown origin) expressed in COS-7 cells assessed as increase in calcium flux measured for 40 sec by Fluo-2 AM dye based assay. Type of assay: cell-based.
In assay [3] the target is T1, Chemerin-like receptor 1. Description: Agonist activity at Wild type CMKL1 (unknown origin) expressed in COS-7 cells assessed as accumulation of inositol phosphate incubated for 3 hrs by liquid scintillation counting method. It is filed as functional, cell-based.
The nature of assay [4]: Agonist activity at CMKL1 E658A mutant (unknown origin) expressed in COS-7 cells assessed as increase in calcium flux measured for 40 sec by Fluo-2 AM dye based assay. It is filed as cell-based.
The nature of assay [5]: Agonist activity at CMKL1 F476A mutant (unknown origin) expressed in COS-7 cells assessed as increase in calcium flux measured for 40 sec by Fluo-2 AM dye based assay. It is filed as cell-based.
Assay [6] can be described thus: Agonist activity at CMKL1 E658A mutant (unknown origin) expressed in COS-7 cells assessed as accumulation of inositol phosphate incubated for 3 hrs by liquid scintillation counting method. It is filed as cell-based. The note with it: COS-7, 3 h.
Assay [7] is described as follows: Agonist activity at CMKL1 Y268A mutant (unknown origin) expressed in COS-7 cells assessed as increase in calcium flux measured for 40 sec by Fluo-2 AM dye based assay. It is filed as cell-based.
The nature of assay [8]: Agonist activity at CMKL1 F476A mutant (unknown origin) expressed in COS-7 cells assessed as accumulation of inositol phosphate incubated for 3 hrs by liquid scintillation counting method. Type of assay: cell-based. The settings on record: COS-7, 3 h.
Assay [9] is described as follows: Agonist activity at CMKL1 F479A mutant (unknown origin) expressed in COS-7 cells assessed as accumulation of inositol phosphate incubated for 3 hrs by liquid scintillation counting method. Type of assay: cell-based. The note with it: COS-7, 3 h.
Assay [10] is described as follows: Agonist activity at CMKL1 F479A mutant (unknown origin) expressed in COS-7 cells assessed as increase in calcium flux measured for 40 sec by Fluo-2 AM dye based assay. Type of assay: cell-based.
Assay [11] can be described thus: Agonist activity at CMKL1 Y263A mutant (unknown origin) expressed in COS-7 cells assessed as increase in calcium flux measured for 40 sec by Fluo-2 AM dye based assay. It is filed as cell-based.

Regarding `CC(C)C[C@H](NC(=O)[C@H](CCC(N)=O)NC(=O)CNC(=O)[C@@H]1CCCN1C(=O)[C@H](Cc1ccccc1)NC(=O)[C@@H](N)Cc1ccc(O)cc1)C(=O)N[C@@H](C)C(=O)N[C@@H](Cc1ccccc1)C(=O)N[C@@H](CO)C(=O)O`, the EC50 at Chemerin-like receptor 1 [1] is 195 nM; in assay [2] (read-out: EC50) it was > 1000 nM; in [2] (read-out: pEC50 (converted)), > 1000 nM.
For `C[C@H](NC(=O)[C@H](Cc1ccccc1)NC(=O)[C@H](CCC(N)=O)NC(=O)CNC(=O)[C@@H]1CCCN1C(=O)[C@H](Cc1ccccc1)NC(=O)[C@@H](N)Cc1ccc(O)cc1)C(=O)NCc1ccccc1`, the EC50 on Chemerin-like receptor 1 [1] worked out at 32 nM.
On the same count and under the same terms, as for `C[C@H](NC(=O)[C@H](Cc1ccccc1)NC(=O)[C@H](CCC(N)=O)NC(=O)CNC(=O)[C@@H]1CCCN1C(=O)[C@H](Cc1ccccc1)NC(=O)[C@@H](N)Cc1ccc(O)cc1)C(=O)N[C@@H](Cc1ccccc1)C(=O)O` (H-YFPGQFAF-OH), the figure is 20 nM.
For the molecule `C[C@@H]1NC(=O)[C@H](Cc2ccccc2)NC(=O)[C@H](CCC(N)=O)NC(=O)[C@@H](NC(=O)[C@@H]2CCCN2C(=O)[C@H](Cc2ccccc2)NC(=O)[C@@H](N)Cc2ccc(O)cc2)CSSC[C@@H](C(=O)O)NC(=O)[C@H](Cc2ccccc2)NC1=O` (HELM PEPTIDE1{Y.F.P.C.Q.F.A.F.C}$PEPTIDE1,PEPTIDE1,4:R3-9:R3$$$V2.0), the EC50 worked out at 64 nM on Chemerin-like receptor 1 [1] and 150 nM at Chemerin-like receptor 1 [3].
On to `C[C@@H]1NC(=O)[C@H](Cc2ccccc2)NC(=O)[C@H](CCC(N)=O)NC(=O)[C@H](NC(=O)[C@@H]2CCCN2C(=O)[C@H](Cc2ccccc2)NC(=O)[C@@H](N)Cc2ccc(O)cc2)CCSSC[C@@H](C(=O)O)NC(=O)[C@H](Cc2ccccc2)NC1=O` (HELM PEPTIDE1{Y.F.P.[O=C([C@@H](CCS[*:3])N[*:1])[*:2]].Q.F.A.F.C}$PEPTIDE1,PEPTIDE1,4:R3-9:R3$$$V2.0), for which the EC50 in [4] (read-out: EC50) is > 1000 nM; in assay [4] (read-out: pEC50 (converted)), > 1000 nM; in assay [5] (read-out: EC50), 85 nM; in assay [5] (read-out: pEC50 (converted)), 85.1 nM; in [6] (read-out: EC50), > 10000 nM; in assay [6] (read-out: pEC50 (converted)), > 10000 nM. Moreover, the EC50 in assay [7] (read-out: EC50) was > 1000 nM; in assay [7] (read-out: pEC50 (converted)) it was > 1000 nM; in [8], 3890 nM; in assay [9], > 10000 nM; in assay [10] (read-out: EC50) it was > 1000 nM; in assay [10] (read-out: pEC50 (converted)), > 1000 nM. Besides, the EC50 is 197 nM in assay [11] (read-out: EC50) and 200 nM in assay [11] (read-out: pEC50 (converted)).
